Experimental data: ChEMBL document CHEMBL1201862, “PubChem BioAssay data set” (2004)
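Protocol summary: plate cells (96-well), add compound at 5 concentrations, incubate 48 h, interpolate endpoints linearly. GI50: concentration for 50% inhibition of growth.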 Calls of active or inactive are those of the source. Rule as the data show it: active = GI50 up to about 1.1 µM and inactive = higher.

Tests used:
Assay in all cases: NCI-60 cell line screen, 48 h
RPMI-8226 = system: RPMI-8226
786-0 = system: 786-0
SK-MEL-5 = system: SK-MEL-5
SR = system: SR
MCF7 = system: MCF7
HOP-62 = system: HOP-62
RXF 393 = system: RXF 393
TK-10 = system: TK-10
SN12C = system: SN12C
A549 = system: A549
SNB-75 = system: SNB-75
U-251 = system: U-251
SF-539 = system: SF-539
NCI-H23 = system: NCI-H23
COLO 205 = system: COLO 205
OVCAR-4 = system: OVCAR-4
NCI-H522 = system: NCI-H522
HOP-92 = system: HOP-92
KM12 = system: KM12
ACHN = system: ACHN
MDA-MB-231 = system: MDA-MB-231
SF-268 = system: SF-268
Malme-3M = system: Malme-3M
IGROV-1 = system: IGROV-1
T47D = system: T47D
HL-60 = system: HL-60
SK-OV-3 = system: SK-OV-3
K562 = system: K562
NCI-H460 = system: NCI-H460
OVCAR-3 = system: OVCAR-3
SF-295 = system: SF-295
MDA-N = system: MDA-N
OVCAR-8 = system: OVCAR-8
UACC-62 = system: UACC-62
OVCAR-5 = system: OVCAR-5
SNB-19 = system: SNB-19
M14 = system: M14
HCT-15 = system: HCT-15
CCRF-CEM = system: CCRF-CEM
Hs-578T = system: Hs-578T
UACC-257 = system: UACC-257
LOX IMVI = system: LOX IMVI
PC-3 = system: PC-3
NCI-H226 = system: NCI-H226
NCI/ADR-RES = system: NCI/ADR-RES
DU-145 = system: DU-145
HT-29 = system: HT-29
MDA-MB-435 = system: MDA-MB-435
BT-549 = system: BT-549
SK-MEL-28 = system: SK-MEL-28
HCT-116 = system: HCT-116
CAKI-1 = system: CAKI-1
EKVX = system: EKVX
A498 = system: A498
MOLT-4 = system: MOLT-4
SW-620 = system: SW-620
SK-MEL-2 = system: SK-MEL-2
UO-31 = system: UO-31
HCC 2998 = system: HCC 2998

Question: Which results are given for `CC/N=C(\N)CSS(=O)(=O)O`?
Answer: GI50 (RPMI-8226): > 100 µM (inactive); GI50 (786-0): > 100 µM (inactive); GI50 (SK-MEL-5): > 100 µM (inactive); GI50 (SR): 36.5 µM (inactive); GI50 (MCF7): > 100 µM (inactive); GI50 (HOP-62): > 100 µM (inactive); GI50 (RXF 393): > 100 µM (inactive); GI50 (TK-10): > 100 µM (inactive); GI50 (SN12C): > 100 µM (inactive); GI50 (A549): > 100 µM (inactive); GI50 (SNB-75): > 100 µM (inactive); GI50 (U-251): 71.1 µM (inactive); GI50 (SF-539): > 100 µM (inactive); GI50 (NCI-H23): > 100 µM (inactive); GI50 (COLO 205): > 100 µM (inactive); GI50 (OVCAR-4): > 100 µM (inactive); GI50 (NCI-H522): > 100 µM (inactive); GI50 (HOP-92): > 100 µM (inactive); GI50 (KM12): > 100 µM (inactive); GI50 (ACHN): > 100 µM (inactive); GI50 (MDA-MB-231): > 100 µM (inactive); GI50 (SF-268): > 100 µM (inactive); GI50 (Malme-3M): > 100 µM (inactive); GI50 (IGROV-1): > 100 µM (inactive); GI50 (T47D): > 100 µM (inactive); GI50 (HL-60): > 100 µM (inactive); GI50 (SK-OV-3): > 100 µM (inactive); GI50 (K562): > 100 µM (inactive); GI50 (NCI-H460): 77.3 µM (inactive); GI50 (OVCAR-3): > 100 µM (inactive); GI50 (SF-295): > 100 µM (inactive); GI50 (MDA-N): > 100 µM (inactive); GI50 (OVCAR-8): > 100 µM (inactive); GI50 (UACC-62): > 100 µM (inactive); GI50 (OVCAR-5): > 100 µM (inactive); GI50 (SNB-19): > 100 µM (inactive); GI50 (M14): > 100 µM (inactive); GI50 (HCT-15): > 100 µM; GI50 (CCRF-CEM): > 100 µM (inactive); GI50 (Hs-578T): > 100 µM (inactive); GI50 (UACC-257): > 100 µM (inactive); GI50 (LOX IMVI): 38.3 µM (inactive); GI50 (PC-3): > 100 µM (inactive); GI50 (NCI-H226): > 100 µM (inactive); GI50 (NCI/ADR-RES): > 100 µM (inactive); GI50 (DU-145): > 100 µM (inactive); GI50 (HT-29): > 100 µM (inactive); GI50 (MDA-MB-435): > 100 µM (inactive); GI50 (BT-549): > 100 µM (inactive); GI50 (SK-MEL-28): > 100 µM (inactive); GI50 (HCT-116): > 100 µM (inactive); GI50 (CAKI-1): > 100 µM (inactive); GI50 (EKVX): > 100 µM (inactive); GI50 (A498): > 100 µM (inactive); GI50 (MOLT-4): 34.6 µM (inactive); GI50 (SW-620): > 100 µM (inactive); GI50 (SK-MEL-2): > 100 µM (inactive)

Question: `COC1OC2COC1(OC)C1OC(C)(C)OC21` (configuration not stated) was tested. Which GI50 (RPMI-8226) did it give?
Answer: > 100 µM (inactive)

Question: And the GI50 (786-0)?
Answer: > 100 µM (inactive)

Question: And the GI50 (SK-MEL-5)?
Answer: > 100 µM (inactive)

Question: What about the GI50 (SR) of the same molecule?
Answer: > 100 µM (inactive)

Question: What about the GI50 (UO-31) of the same molecule?
Answer: > 100 µM (inactive)

Question: And the GI50 (MCF7)?
Answer: > 100 µM (inactive)

Question: And the GI50 (HOP-62)?
Answer: > 100 µM (inactive)

Question: And the GI50 (RXF 393)?
Answer: > 100 µM (inactive)

Question: What about the GI50 (TK-10) of the same molecule?
Answer: > 100 µM (inactive)

Question: And the GI50 (SN12C)?
Answer: > 100 µM (inactive)

Question: And the GI50 (A549)?
Answer: > 100 µM (inactive)

Question: And the GI50 (SNB-75)?
Answer: > 100 µM (inactive)

Question: And the GI50 (U-251)?
Answer: > 100 µM (inactive)

Question: What about the GI50 (NCI-H23) of the same molecule?
Answer: > 100 µM (inactive)

Question: And the GI50 (COLO 205)?
Answer: > 100 µM (inactive)

Question: And the GI50 (OVCAR-4)?
Answer: > 100 µM (inactive)

Question: What about the GI50 (NCI-H522) of the same molecule?
Answer: > 100 µM (inactive)

Question: And the GI50 (KM12)?
Answer: > 100 µM (inactive)

Question: And the GI50 (ACHN)?
Answer: > 100 µM (inactive)

Question: What about the GI50 (MDA-MB-231) of the same molecule?
Answer: > 100 µM (inactive)

Question: And the GI50 (SF-268)?
Answer: > 100 µM (inactive)

Question: And the GI50 (Malme-3M)?
Answer: > 100 µM (inactive)

Question: And the GI50 (IGROV-1)?
Answer: > 100 µM (inactive)

Question: And the GI50 (T47D)?
Answer: > 100 µM (inactive)

Question: And the GI50 (SK-OV-3)?
Answer: > 100 µM (inactive)

Question: What about the GI50 (K562) of the same molecule?
Answer: > 100 µM (inactive)

Question: What about the GI50 (NCI-H460) of the same molecule?
Answer: > 100 µM (inactive)

Question: What about the GI50 (OVCAR-3) of the same molecule?
Answer: > 100 µM (inactive)

Question: What about the GI50 (SF-295) of the same molecule?
Answer: > 100 µM (inactive)

Question: What about the GI50 (MDA-N) of the same molecule?
Answer: > 100 µM (inactive)

Question: What about the GI50 (OVCAR-8) of the same molecule?
Answer: > 100 µM (inactive)

Question: What about the GI50 (UACC-62) of the same molecule?
Answer: > 100 µM (inactive)

Question: And the GI50 (OVCAR-5)?
Answer: > 100 µM (inactive)

Question: And the GI50 (SNB-19)?
Answer: > 100 µM (inactive)

Question: And the GI50 (HCC 2998)?
Answer: > 100 µM (inactive)

Question: What about the GI50 (M14) of the same molecule?
Answer: > 100 µM (inactive)

Question: And the GI50 (HCT-15)?
Answer: > 100 µM

Question: What about the GI50 (CCRF-CEM) of the same molecule?
Answer: > 100 µM (inactive)

Question: What about the GI50 (Hs-578T) of the same molecule?
Answer: > 100 µM (inactive)

Question: And the GI50 (UACC-257)?
Answer: > 100 µM (inactive)

Question: And the GI50 (PC-3)?
Answer: > 100 µM (inactive)

Question: And the GI50 (NCI-H226)?
Answer: > 100 µM (inactive)

Question: And the GI50 (NCI/ADR-RES)?
Answer: > 100 µM (inactive)

Question: What about the GI50 (DU-145) of the same molecule?
Answer: > 100 µM (inactive)

Question: What about the GI50 (HT-29) of the same molecule?
Answer: > 100 µM (inactive)

Question: What about the GI50 (MDA-MB-435) of the same molecule?
Answer: > 100 µM (inactive)

Question: What about the GI50 (BT-549) of the same molecule?
Answer: > 100 µM (inactive)

Question: And the GI50 (SK-MEL-28)?
Answer: > 100 µM (inactive)

Question: What about the GI50 (HCT-116) of the same molecule?
Answer: > 100 µM (inactive)

Question: What about the GI50 (CAKI-1) of the same molecule?
Answer: > 100 µM (inactive)

Question: And the GI50 (EKVX)?
Answer: > 100 µM (inactive)

Question: And the GI50 (A498)?
Answer: > 100 µM (inactive)

Question: And the GI50 (MOLT-4)?
Answer: > 100 µM (inactive)

Question: What about the GI50 (SW-620) of the same molecule?
Answer: > 100 µM (inactive)

Question: What about the GI50 (SK-MEL-2) of the same molecule?
Answer: > 100 µM (inactive)
